Data reported in publication PMC11822212, “High-throughput screening identifies Aurora kinase B as a critical therapeutic target for Merkel cell carcinoma” (Nature Communications, 2025).

What was measured:
[1] = test system: MCC13 cells (VN-MCC); test: qHTS cell viability (CellTiter-Glo, 72 h; primary and follow-up small molecule screen); assay type: cell-based, human; conditions: for Percent viability: MCC13, 72h
[2] = test system: MCC26 cells (VN-MCC); test: as above; assay type: cell-based, human; conditions: for Percent viability: MCC26, 72h
[3] = test system: UISO cells (VN-MCC); test: as above; assay type: cell-based, human; conditions: for Percent viability: UISO, 72h
[4] = test system: WAGA cells (VP-MCC); test: as above; assay type: cell-based, human; conditions: for Percent viability: WAGA, 72h
[5] = test system: MKL-1 cells (VP-MCC); test: as above; assay type: cell-based, human; conditions: for Percent viability: MKL1, 72h
[6] = test system: MKL-2 cells (VP-MCC); test: as above; assay type: cell-based, human; conditions: for Percent viability: MKL2, 72h
[7] = test system: HACAT cells; test: qHTS cell viability (CellTiter-Glo, 72 h; primary screen), control cell line; assay type: cell-based, human; conditions: area under the dose-response curve, HACAT control cells; AUC<450 = reduced viability
[8] = test system: HEK293T cells; test: as above; assay type: cell-based, human; conditions: area under the dose-response curve, HEK293T control cells; AUC<450 = reduced viability
[9] = test system: NIH-3T3 cells; test: as above; assay type: cell-based, mouse; conditions: area under the dose-response curve, NIH3T3 control cells; AUC<450 = reduced viability
[10] = test system: CRL-7250 cells; test: as above; assay type: cell-based; conditions: area under the dose-response curve, CRL7250 control cells; AUC<450 = reduced viability
[11] = test system: VP-MCC cell lines (WAGA, MKL-1, MKL-2); test: qHTS cell viability, VP-MCC cell lines as a group (mean AUC, VP.MCC.avg); assay type: cell-based, human; conditions: re-tested in triplicate, follow-up screen

C[C@H](CCC(=O)O)[C@H]1CC[C@H]2[C@@H]3[C@H](O)C[C@@H]4C[C@H](O)CC[C@]4(C)[C@H]3CC[C@]12C [Chenodeoxycholic acid] was tested, and the MCC13_AUC ([1]; area under the dose-response curve, MCC13 cells, AUC<450 = reduced viability) was 458.762, the MCC26_AUC ([2]; area under the dose-response curve, MCC26 cells, AUC<450 = reduced viability) was 489.842 and the UISO_AUC ([3]; area under the dose-response curve, UISO cells, AUC<450 = reduced viability) was 483.595. The WAGA_AUC ([4]; area under the dose-response curve, WAGA cells, AUC<450 = reduced viability) was 440.562, the MKL1_AUC ([5]; area under the dose-response curve, MKL-1 cells, AUC<450 = reduced viability) was 439.87 and the MKL2_AUC ([6]; area under the dose-response curve, MKL-2 cells, AUC<450 = reduced viability) was 427.388. It also gave an HACAT_AUC [7] of 475.403, an HEK293T_AUC [8] of 474.014 and an NIH3T3_AUC [9] of 479.384. The CRL7250_AUC [10] was 462.86.
CCS(=O)(=O)c1cccc(-c2cc(C(=O)NC3CCN(C)CC3)c(C)c3[nH]c4ncc(C)cc4c23)c1 [TAK-901, reference compound] gave a Percent viability ([1]; Log (M) -5.33646) of 26.1%, a Percent viability ([1]; Log (M) -5.81358) of 79.3% and a Percent viability ([1]; Log (M) -6.2907) of 86.5%. The Percent viability ([1]; Log (M) -6.76782) was 99.0%, the Percent viability ([1]; Log (M) -7.24494) was 119.7% and the Percent viability ([1]; Log (M) -7.72207) was 113.0%. The Percent viability ([1]; Log (M) -8.19919) was 118.4%, the Percent viability ([1]; Log (M) -8.67631) was 116.9% and the Percent viability ([1]; Log (M) -9.15343) was 104.5%. The Percent viability ([1]; Log (M) -9.63055) was 119.9%, the Percent viability ([1]; Log (M) -10.1077) was 98.3% and the Percent viability ([2]; Log (M) -5.33646) was 25.9%. The Percent viability ([2]; Log (M) -5.81358) was 20.6%, the Percent viability ([2]; Log (M) -6.2907) was 33.0% and the Percent viability ([2]; Log (M) -6.76782) was 64.5%. It also gave a Percent viability ([2]; Log (M) -7.24494) of 80.5%, a Percent viability ([2]; Log (M) -7.72207) of 93.5% and a Percent viability ([2]; Log (M) -8.19919) of 87.4%. It also gave a Percent viability ([2]; Log (M) -8.67631) of 96.2%, a Percent viability ([2]; Log (M) -9.15343) of 90.5% and a Percent viability ([2]; Log (M) -9.63055) of 91.5%. It also gave a Percent viability ([2]; Log (M) -10.1077) of 63.2%, a Percent viability ([3]; Log (M) -5.33646) of 2.3% and a Percent viability ([3]; Log (M) -5.81358) of 2.9%. The Percent viability ([3]; Log (M) -6.2907) was 16.4%, the Percent viability ([3]; Log (M) -6.76782) was 39.6% and the Percent viability ([3]; Log (M) -7.24494) was 65.2%. It also gave a Percent viability ([3]; Log (M) -7.72207) of 80.6%, a Percent viability ([3]; Log (M) -8.19919) of 77.5% and a Percent viability ([3]; Log (M) -8.67631) of 101.9%. For the same compound, the Percent viability ([3]; Log (M) -9.15343) was 102.4%, the Percent viability ([3]; Log (M) -9.63055) was 103.6% and the Percent viability ([3]; Log (M) -10.1077) was 103.5%. For the same compound, the Percent viability ([4]; Log (M) -5.33646) was 14.8%, the Percent viability ([4]; Log (M) -5.81358) was 27.2% and the Percent viability ([4]; Log (M) -6.2907) was 24.4%. For the same compound, the Percent viability ([4]; Log (M) -6.76782) was 45.2%, the Percent viability ([4]; Log (M) -7.24494) was 29.7% and the Percent viability ([4]; Log (M) -7.72207) was 26.6%. The Percent viability ([4]; Log (M) -8.19919) was 95.5%, the Percent viability ([4]; Log (M) -8.67631) was 121.9% and the Percent viability ([4]; Log (M) -9.15343) was 112.0%. For the same compound, the Percent viability ([4]; Log (M) -9.63055) was 114.1%, the Percent viability ([4]; Log (M) -10.1077) was 123.7% and the Percent viability ([5]; Log (M) -5.33646) was 3.5%. It also gave a Percent viability ([5]; Log (M) -5.81358) of 27.5%, a Percent viability ([5]; Log (M) -6.2907) of 14.2% and a Percent viability ([5]; Log (M) -6.76782) of 38.9%. The Percent viability ([5]; Log (M) -7.24494) was 42.7%, the Percent viability ([5]; Log (M) -7.72207) was 48.2% and the Percent viability ([5]; Log (M) -8.19919) was 61.6%. The Percent viability ([5]; Log (M) -8.67631) was 102.5%, the Percent viability ([5]; Log (M) -9.15343) was 100.0% and the Percent viability ([5]; Log (M) -9.63055) was 106.9%. The Percent viability ([5]; Log (M) -10.1077) was 62.6%, the Percent viability ([6]; Log (M) -5.33646) was 3.8% and the Percent viability ([6]; Log (M) -5.81358) was 12.3%. The Percent viability ([6]; Log (M) -6.2907) was 44.7%, the Percent viability ([6]; Log (M) -6.76782) was 52.1% and the Percent viability ([6]; Log (M) -7.24494) was 44.0%. It also gave a Percent viability ([6]; Log (M) -7.72207) of 44.3%, a Percent viability ([6]; Log (M) -8.19919) of 48.4% and a Percent viability ([6]; Log (M) -8.67631) of 94.9%. For the same compound, the Percent viability ([6]; Log (M) -9.15343) was 110.4%, the Percent viability ([6]; Log (M) -9.63055) was 106.9% and the Percent viability ([6]; Log (M) -10.1077) was 102.9%. The “VP-MCC viability (in words)” value [11] was “consistently and potently reduced VP-MCC viability”.
O=C(Nc1cccc(Cl)c1)Nc1ncc(CCNc2ncnc3ccsc23)s1 [SNS-314, reference compound] was tested, and the Percent viability ([1]; Log (M) -5.33646) was 49.0%, the Percent viability ([1]; Log (M) -5.81358) was 56.7% and the Percent viability ([1]; Log (M) -6.2907) was 82.7%. The Percent viability ([1]; Log (M) -6.76782) was 93.1%, the Percent viability ([1]; Log (M) -7.24494) was 90.9% and the Percent viability ([1]; Log (M) -7.72207) was 100.8%. It also gave a Percent viability ([1]; Log (M) -8.19919) of 94.5%, a Percent viability ([1]; Log (M) -8.67631) of 106.6% and a Percent viability ([1]; Log (M) -9.15343) of 125.4%. For the same compound, the Percent viability ([1]; Log (M) -9.63055) was 116.5%, the Percent viability ([1]; Log (M) -10.1077) was 92.5% and the Percent viability ([2]; Log (M) -5.33646) was 72.0%. The Percent viability ([2]; Log (M) -5.81358) was 84.0%, the Percent viability ([2]; Log (M) -6.2907) was 86.8% and the Percent viability ([2]; Log (M) -6.76782) was 90.3%. For the same compound, the Percent viability ([2]; Log (M) -7.24494) was 93.9%, the Percent viability ([2]; Log (M) -7.72207) was 97.6% and the Percent viability ([2]; Log (M) -8.19919) was 94.0%. For the same compound, the Percent viability ([2]; Log (M) -8.67631) was 99.1%, the Percent viability ([2]; Log (M) -9.15343) was 95.5% and the Percent viability ([2]; Log (M) -9.63055) was 91.7%. The Percent viability ([2]; Log (M) -10.1077) was 91.9%, the Percent viability ([3]; Log (M) -5.33646) was 21.7% and the Percent viability ([3]; Log (M) -5.81358) was 56.9%. It also gave a Percent viability ([3]; Log (M) -6.2907) of 70.9%, a Percent viability ([3]; Log (M) -6.76782) of 75.0% and a Percent viability ([3]; Log (M) -7.24494) of 93.3%. It also gave a Percent viability ([3]; Log (M) -7.72207) of 86.0%, a Percent viability ([3]; Log (M) -8.19919) of 89.1% and a Percent viability ([3]; Log (M) -8.67631) of 101.5%. For the same compound, the Percent viability ([3]; Log (M) -9.15343) was 108.7%, the Percent viability ([3]; Log (M) -9.63055) was 96.8% and the Percent viability ([3]; Log (M) -10.1077) was 98.0%. For the same compound, the Percent viability ([4]; Log (M) -5.33646) was 42.9%, the Percent viability ([4]; Log (M) -5.81358) was 32.8% and the Percent viability ([4]; Log (M) -6.2907) was 39.2%. The Percent viability ([4]; Log (M) -6.76782) was 41.9%, the Percent viability ([4]; Log (M) -7.24494) was 24.7% and the Percent viability ([4]; Log (M) -7.72207) was 26.4%. For the same compound, the Percent viability ([4]; Log (M) -8.19919) was 38.2%, the Percent viability ([4]; Log (M) -8.67631) was 100.0% and the Percent viability ([4]; Log (M) -9.15343) was 100.0%. The Percent viability ([4]; Log (M) -9.63055) was 102.6%, the Percent viability ([4]; Log (M) -10.1077) was 100.0% and the Percent viability ([5]; Log (M) -5.33646) was 37.7%. The Percent viability ([5]; Log (M) -5.81358) was 37.4%, the Percent viability ([5]; Log (M) -6.2907) was 42.7% and the Percent viability ([5]; Log (M) -6.76782) was 49.2%. For the same compound, the Percent viability ([5]; Log (M) -7.24494) was 26.9%, the Percent viability ([5]; Log (M) -7.72207) was 28.2% and the Percent viability ([5]; Log (M) -8.19919) was 56.1%. The Percent viability ([5]; Log (M) -8.67631) was 100.9%, the Percent viability ([5]; Log (M) -9.15343) was 107.4% and the Percent viability ([5]; Log (M) -9.63055) was 103.4%. It also gave a Percent viability ([5]; Log (M) -10.1077) of 99.7%, a Percent viability ([6]; Log (M) -5.33646) of 20.8% and a Percent viability ([6]; Log (M) -5.81358) of 47.8%. It also gave a Percent viability ([6]; Log (M) -6.2907) of 56.2%, a Percent viability ([6]; Log (M) -6.76782) of 47.9% and a Percent viability ([6]; Log (M) -7.24494) of 43.4%. It also gave a Percent viability ([6]; Log (M) -7.72207) of 52.1%, a Percent viability ([6]; Log (M) -8.19919) of 55.1% and a Percent viability ([6]; Log (M) -8.67631) of 62.3%. For the same compound, the Percent viability ([6]; Log (M) -9.15343) was 100.0%, the Percent viability ([6]; Log (M) -9.63055) was 104.9% and the Percent viability ([6]; Log (M) -10.1077) was 91.4%. The “VP-MCC viability (in words)” value [11] was “consistently and potently reduced VP-MCC viability”.
